Structures can show the parent of a compound that is named as a salt.
Tested on: immortalized Fuchs' endothelial corneal dystrophy cells
Assay: Concentration-dependent caspase 3/7 activity under TGF-β2 stimulation (Example 3)
Type: cell-based
Details: Homo sapiens, TGF-β2 10 ng/mL, 28 hours; for activity at 10 µM: agent 10 μM; for activity at 0.01 µM: agent 10 nM; for activity at 0.1 µM: agent 100 nM; for activity at 1 µM: agent 1 μM; for activity at 0.001 µM: agent 1 nM
Description: 7×10^3 immortalized Fuchs' endothelial corneal dystrophy cells were seeded on a 96-well plate and were cultured for 24 hours under the condition of 5% CO2 at 37° C.
After 28 hours under the condition of 5% CO2 at 37° C., cell morphology was observed using a phase difference microscope. Caspase 3/7 activity was then measured using Caspase-Glo 3/7 Assay (Promega, #G8091). DMEM+2% FBS+1% P/S was used as the medium. Caspase 3/7 activity and cell viability in this example were measured using GloMax-Multi Detection System (Promega, E7051).
Caspase 3/7 activity below 80% was used as a indicator indicating whether an agent can be used for treating or preventing a corneal endothelial condition, disorder, or disease, or whether an agent can be used as a caspase inhibitor (the underlines in FIG. 4A-1, FIG. 4A-2 and FIG. 4A-3, and FIG. 4B-1, FIG. 4B-2 and FIG. 4B-3).

CN1CC2c3ccccc3Oc3ccc(Cl)cc3C2C1 (centres unmarked) [Asenapine Maleate] showed an activity at 10 µM of at most 80%.
CC1(C)O[C@@H]2C[C@H]3[C@@H]4C[C@H](F)C5=CC(=O)CC[C@]5(C)[C@H]4[C@@H](O)C[C@]3(C)[C@]2(C(=O)CO)O1 [Flurandrenolide] gave an activity at 0.01 µM of at most 80%, an activity at 0.1 µM of at most 80% and an activity at 1 µM of at most 80%. For the same compound, the activity at 10 µM was at most 80%.
With CC(=O)N1CCN(c2ccc(OCC3COC(Cn4ccnc4)(c4ccc(Cl)cc4Cl)O3)cc2)CC1 (centres unmarked) [Ketoconazole] the activity at 10 µM was at most 80%.
With CCC(=O)O[C@]1(C(=O)CCl)[C@@H](C)C[C@H]2[C@@H]3CCC4=CC(=O)C=C[C@]4(C)[C@@]3(F)[C@@H](O)C[C@@]21C [Clobetasol Propionate] the activity at 1 pM (agent 1 pM) was at most 80%, the activity at 0.01 µM was at most 80% and the activity at 0.1 µM was at most 80%. The activity at 1 µM was at most 80% and the activity at 10 µM was at most 80%.
Compound CC[C@@H]1/C=C(\C)C[C@H](C)C[C@H](OC)[C@H]2O[C@@](O)(C(=O)C(=O)N3CCCC[C@H]3C(=O)O[C@H](/C(C)=C/[C@@H]3CC[C@H](Cl)[C@H](OC)C3)[C@H](C)[C@@H](O)CC1=O)[C@H](C)C[C@@H]2OC [Pimecrolimus] has an activity at 0.01 µM of at most 80%, an activity at 1 µM of at most 80% and an activity at 10 µM of at most 80%.
With CC(C)C[C@H]1C(=O)N2CCC[C@H]2[C@]2(O)O[C@](NC(=O)[C@@H]3C=C4c5cccc6[nH]c(Br)c(c56)C[C@H]4N(C)C3)(C(C)C)C(=O)N12 [Bromocriptine Mesylate] the activity at 10 µM was at most 80%.
Work on CC(=O)Oc1ccccc1C(=O)Nc1ncc([N+](=O)[O-])s1 [Nitazoxanide] yielded an activity at 10 µM of at most 80%.
COc1ccccc1OCCNCC(O)COc1cccc2[nH]c3ccccc3c12 (centres unmarked) [Carvedilol] was tested, and the activity at 10 µM was at most 80%.
C[C@H]1C[C@H]2[C@@H]3CCC4=CC(=O)C=C[C@]4(C)[C@@]3(F)[C@@H](O)C[C@]2(C)[C@@]1(O)C(=O)CO [Betamethasone] was tested, and the activity at 0.1 µM was at most 80%, the activity at 1 µM was at most 80% and the activity at 10 µM was at most 80%.
With C[C@]12CC[C@@H]3c4ccc(O)cc4C[C@@H](CCCCCCCCC[S+]([O-])CCCC(F)(F)C(F)(F)F)[C@H]3[C@@H]1CC[C@@H]2O (some centres unmarked) [Fulvestrant] the activity at 0.01 µM was at most 80%, the activity at 0.1 µM was at most 80% and the activity at 1 µM was at most 80%. For the same compound, the activity at 10 µM was at most 80%.
CCC(=O)OCC(=O)[C@@]1(OC(=O)CC)[C@@H](C)C[C@H]2[C@@H]3CCC4=CC(=O)C=C[C@]4(C)[C@@]3(Cl)[C@@H](O)C[C@@]21C [Beclomethasone Dipropionate] showed an activity at 0.1 µM of at most 80%, an activity at 1 µM of at most 80% and an activity at 10 µM of at most 80%.
In the case of CO[C@H]1C[C@@H]2CC[C@@H](C)[C@@](O)(O2)C(=O)C(=O)N2CCCC[C@H]2C(=O)O[C@H]([C@H](C)C[C@@H]2CC[C@@H](OCCO)[C@H](OC)C2)CC(=O)[C@H](C)/C=C(\C)[C@@H](O)[C@@H](OC)C(=O)[C@H](C)C[C@H](C)/C=C/C=C/C=C/1C [Everolimus], the activity at 0.01 µM is reported as at most 80%, the activity at 0.1 µM is reported as at most 80% and the activity at 1 µM is reported as at most 80%. For the same compound, the activity at 10 µM was at most 80%.
With O=C(O)c1ccc(-n2nc(-c3ccccc3O)nc2-c2ccccc2O)cc1 [Deferasirox] the activity at 10 µM was at most 80%.
Work on COc1c(C)c2c(c(O)c1C/C=C(\C)CCC(=O)OCCN1CCOCC1)C(=O)OC2 [Mycophenolate Mofetil] yielded an activity at 0.01 µM of at most 80%, an activity at 0.1 µM of at most 80% and an activity at 1 µM of at most 80%. For the same compound, the activity at 10 µM was at most 80%.
Work on CN1C[C@H](C(=O)N[C@]2(C)O[C@@]3(O)[C@@H]4CCCN4C(=O)[C@H](Cc4ccccc4)N3C2=O)C[C@@H]2c3cccc4[nH]cc(c34)C[C@H]21 [Dihydroergotamine Mesylate] yielded an activity at 10 µM of at most 80%.
With CC1(C)O[C@@H]2C[C@H]3[C@@H]4CCC5=CC(=O)C=C[C@]5(C)[C@H]4[C@@H](O)C[C@]3(C)[C@]2(C(=O)CO)O1 [Desonide] the activity at 0.1 µM was at most 80%, the activity at 1 µM was at most 80% and the activity at 10 µM was at most 80%.
For CCCC(=O)O[C@]1(C(=O)COC(C)=O)CC[C@H]2[C@@H]3C[C@H](F)C4=CC(=O)C=C[C@]4(C)[C@@]3(F)[C@@H](O)C[C@@]21C [Difluprednate], the activity at 0.001 µM was at most 80%, the activity at 0.01 µM was at most 80% and the activity at 0.1 µM was at most 80%. The activity at 1 µM was at most 80% and the activity at 10 µM was at most 80%.
Cc1ccc(O)c([C@H](CCN(C(C)C)C(C)C)c2ccccc2)c1 [Tolterodine Tartrate] gave an activity at 0.001 µM of at most 80%, an activity at 0.01 µM of at most 80% and an activity at 1 µM of at most 80%. The activity at 10 µM was at most 80%.
Compound CC(=O)OCC(=O)[C@@]12OC3(CCCC3)O[C@@H]1C[C@H]1[C@@H]3CCC4=CC(=O)C=C[C@]4(C)[C@@]3(F)[C@@H](O)C[C@@]12C [Amcinonide] has an activity at 0.01 µM of at most 80%, an activity at 0.1 µM of at most 80% and an activity at 1 µM of at most 80%. It also gave an activity at 10 µM of at most 80%.
With CO[C@H]1/C=C/O[C@@]2(C)Oc3c(C)c(O)c4c(O)c(c(/C=N/N5CCN(C6CCCC6)CC5)c(O)c4c3C2=O)NC(=O)/C(C)=C\C=C\[C@H](C)[C@H](O)[C@@H](C)[C@@H](O)[C@@H](C)[C@H](OC(C)=O)[C@@H]1C [Rifapentine] the activity at 1 µM was at most 80%.
Compound CC1(C)O[C@@H]2C[C@H]3[C@@H]4C[C@H](F)C5=CC(=O)C=C[C@]5(C)[C@@]4(F)[C@@H](O)C[C@]3(C)[C@]2(C(=O)CO)O1 [Fluocinolone Acetonide] has an activity at 10 pM (agent 10 pM) of at most 80%, an activity at 0.01 µM of at most 80% and an activity at 0.1 µM of at most 80%. It also gave an activity at 1 µM of at most 80% and an activity at 10 µM of at most 80%.
With C=C1/C(=C\C=C2/CCC[C@]3(C)[C@@H]([C@H](C)CCCC(C)(C)O)CC[C@@H]23)C[C@@H](O)C[C@@H]1O [Calcitriol] the activity at 10 µM was at most 80%.
With CC(=O)[C@@]1(O)CC[C@H]2[C@@H]3C[C@H](C)C4=CC(=O)C=C[C@]4(C)[C@@]3(F)[C@@H](O)C[C@@]21C [Fluorometholone] the activity at 0.1 µM was at most 80%, the activity at 1 µM was at most 80% and the activity at 10 µM was at most 80%.
With C[C@@H]1C[C@H]2[C@@H]3CCC4=CC(=O)C=C[C@]4(C)[C@@]3(F)[C@@H](O)C[C@]2(C)[C@H]1C(=O)CO [Desoximetasone] the activity at 0.01 µM was at most 80%, the activity at 0.1 µM was at most 80% and the activity at 1 µM was at most 80%. For the same compound, the activity at 10 µM was at most 80%.
C[C@H]1C[C@@H]2[C@H]([C@@H](O)C[C@@]3(C)[C@H]2CC[C@]3(O)C(=O)CO)[C@@]2(C)C=CC(=O)C=C12 [Methylprednisolone] gave an activity at 0.1 µM of at most 80%, an activity at 1 µM of at most 80% and an activity at 10 µM of at most 80%.
COC(=O)C1=C(C)NC(C)=C(C(=O)OCC(C)C)C1c1ccccc1[N+](=O)[O-] (centres unmarked) [Nisoldipine] gave an activity at 10 µM of at most 80%.
In the case of CC1(C)O[C@@H]2C[C@H]3[C@@H]4CCC5=CC(=O)CC[C@]5(C)[C@@]4(F)[C@@H](O)C[C@]3(C)[C@]2(C(=O)CCl)O1 [Halcinonide], the activity at 0.01 µM is reported as at most 80%, the activity at 0.1 µM is reported as at most 80% and the activity at 1 µM is reported as at most 80%. For the same compound, the activity at 10 µM was at most 80%.
O=C1CCc2ccc(OCCCCN3CCN(c4cccc(Cl)c4Cl)CC3)cc2N1 [Aripiprazole] showed an activity at 10 µM of at most 80%.
For COc1c(C)c2c(c(O)c1C/C=C(\C)CCC(=O)O)C(=O)OC2 [Mycophenolic Acid], the activity at 0.01 µM was at most 80%, the activity at 0.1 µM was at most 80% and the activity at 1 µM was at most 80%. The activity at 10 µM was at most 80%.
Compound C[C@@H]1C[C@H]2[C@@H]3CCC4=CC(=O)C=C[C@]4(C)[C@@]3(F)[C@@H](O)C[C@]2(C)[C@@]1(O)C(=O)CO [Dexamethasone] has an activity at 0.01 µM of at most 80%, an activity at 0.1 µM of at most 80% and an activity at 1 µM of at most 80%. It also gave an activity at 10 µM of at most 80%.
For CC(=O)OCC(=O)[C@@]1(O)CC[C@H]2[C@@H]3CCC4=CC(=O)CC[C@]4(C)[C@@]3(F)[C@@H](O)C[C@@]21C [Fludrocortisone Acetate], the activity at 0.1 µM was at most 80%, the activity at 1 µM was at most 80% and the activity at 10 µM was at most 80%.
Compound CC1(C)O[C@@H]2C[C@H]3[C@@H]4CCC5=CC(=O)C=C[C@]5(C)[C@@]4(F)[C@@H](O)C[C@]3(C)[C@]2(C(=O)CO)O1 [Triamcinolone Acetonide] has an activity at 0.01 µM of at most 80%, an activity at 0.1 µM of at most 80% and an activity at 1 µM of at most 80%. For the same compound, the activity at 10 µM was at most 80%.
In the case of CCc1nc(N)nc(N)c1-c1ccc(Cl)cc1 [Pyrimethamine], the activity at 10 µM is reported as at most 80%.
For C[C@@H]1C[C@H]2[C@@H]3CCC4=CC(=O)C=C[C@]4(C)[C@@]3(Cl)[C@@H](O)C[C@]2(C)[C@@]1(OC(=O)c1ccco1)C(=O)CCl [Mometasone Furoate], the activity at 0.01 µM was at most 80%, the activity at 0.1 µM was at most 80% and the activity at 1 µM was at most 80%. The activity at 10 µM was at most 80%.
Compound C[C@]12C=CC(=O)C=C1CC[C@@H]1[C@@H]2[C@@H](O)C[C@@]2(C)[C@H]1CC[C@]2(O)C(=O)CO [Prednisolone] has an activity at 0.1 µM of at most 80%, an activity at 1 µM of at most 80% and an activity at 10 µM of at most 80%.
Compound CCCC1O[C@@H]2C[C@H]3[C@@H]4CCC5=CC(=O)C=C[C@]5(C)[C@H]4[C@@H](O)C[C@]3(C)[C@]2(C(=O)CO)O1 (some centres unmarked) [Budesonide] has an activity at 0.001 µM of at most 80%, an activity at 0.01 µM of at most 80% and an activity at 0.1 µM of at most 80%. The activity at 1 µM was at most 80% and the activity at 10 µM was at most 80%.

— patent publication US20200121652A1, “COMPOUNDS HAVING CASPASE INHIBITORY ACTIVITY, PHARMACEUTICAL AGENT CONTAINING SAID COMPOUNDS AND FOR TREATING OR PREVENTING CORNEAL ENDOTHELIAL SYMPTOMS, DISORDERS, OR DISEASES, AND APPLICATION OF SAID PHARMACEUTICAL AGENT” (The Doshisha, priority 2017, published 2020)
